The record followed here is ChEMBL document CHEMBL5131527, “Novel BTK Inhibitors for Treating Autoimmune Disorders and Cancer” (ACS Med Chem Lett, 2022).

Each structure is given as a SMILES string.

Sequence of Tyrosine-protein kinase BTK (Q06187 whole entry): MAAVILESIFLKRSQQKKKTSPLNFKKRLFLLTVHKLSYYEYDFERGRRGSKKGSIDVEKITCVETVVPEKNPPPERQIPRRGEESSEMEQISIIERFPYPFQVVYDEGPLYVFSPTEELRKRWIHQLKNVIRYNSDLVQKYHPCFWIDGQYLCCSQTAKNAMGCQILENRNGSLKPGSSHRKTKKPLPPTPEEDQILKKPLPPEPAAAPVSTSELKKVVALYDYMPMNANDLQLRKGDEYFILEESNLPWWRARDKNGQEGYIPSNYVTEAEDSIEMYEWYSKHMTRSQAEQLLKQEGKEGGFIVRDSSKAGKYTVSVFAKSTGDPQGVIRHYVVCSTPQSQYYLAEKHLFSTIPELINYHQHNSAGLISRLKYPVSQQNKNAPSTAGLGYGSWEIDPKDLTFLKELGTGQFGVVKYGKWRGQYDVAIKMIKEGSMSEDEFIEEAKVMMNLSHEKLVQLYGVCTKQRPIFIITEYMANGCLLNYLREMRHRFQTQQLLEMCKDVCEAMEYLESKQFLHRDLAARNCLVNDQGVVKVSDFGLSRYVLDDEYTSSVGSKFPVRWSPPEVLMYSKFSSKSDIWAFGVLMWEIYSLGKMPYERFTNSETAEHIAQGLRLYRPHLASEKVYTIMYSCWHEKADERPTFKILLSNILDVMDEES

This test concerns the target Tyrosine-protein kinase BTK (Homo sapiens, UniProt Q06187). Briefly: Inhibition of BTK (unknown origin) using fluorescein-labeled polyGAT peptide as substrate incubated for 75 min in presence of ATP by time resolved fluorescence method.
For the compound `C=CC(=O)N1CCN(c2cnccc2-c2ccc(CNC(=O)c3noc(C(C)(C)C)n3)c(C)c2)CC1`, the IC50 (commonly the concentration that inhibits the measured activity by half) is not above 1 nM.
For `C=CC(=O)N1CCN(c2cncnc2-c2ccc(CNC(=O)c3cn(C(C)(C)C)nn3)c(C)c2)CC1`, the half-maximal inhibitory concentration (IC50) is not above 1 nM.
With `C=CC(=O)N(C)C1CCCN(c2cnccc2-c2ccc(CNC(=O)c3noc(C(C)(C)C)n3)c(C)c2)C1` (stereo unspecified), the IC50 is not above 1 nM.
Then `C=CC(=O)N(C)C1CCN(c2cncnc2-c2ccc(CNC(=O)c3cn(C(C)(C)C)nn3)c(C)c2)C1` (stereo unspecified), with not above 1 nM; and `C=CC(=O)N1CCN(c2cncnc2-c2ccc(CNC(=O)c3nnn(C(C)(C)C)n3)c(C)c2)CC1`, with not above 1 nM; and `C=CC(=O)N(C)CC1CCN(c2cncnc2-c2ccc(CNC(=O)c3noc(C(C)(C)C)n3)c(C)c2)C1` (stereo unspecified), with not above 1 nM.
